US6552073B1, “Compounds and methods of treating cell proliferative diseases” (Exonhit Therapeutics SA, priority 2002, dated 2003)
“Also recorded” adds a separate entry of the source.

Key:
[1] = test system: NIH3T3 cells transfected with RasV12; test: Colony formation assay in the presence of constitutively activated Ras (RasV12); format: cell-based, mouse; set-up: key to Colony formation: −: no effect of the compound was observed; +: an effect of the compound was observed; conditions: NIH3T3, neoR colonies
Procedure: c) Ras/Rac-dependant Signaling Pathway Analysis
The impact of the compounds on Ras and Rac signaling pathways was analysed with two reporter systems described by Imler (Nature 1988) and Lin (Science, 1995) respectively on one hand, and by a colony formation assay in the presence of constitutively activated Ras (RasV12) and Rac (RacV12) on the other hand. For this latter experiment, fifty percent confluent NIH3T3 cells in a 10 cm diameter petri dish were transfected with 0.5 μg pSV2-RasV12 or 0.5 μg pEXV RacV12 plasmids plus 100 ng of pSV2-neomycin plasmid using Lipofectamine-Plus reagent (Invitrogen) according to the manufacturer's instructions. Forty-eight hours later, cells were trypsinised, splitted to 1/3, and incubated in the presence of complete medium supplemented with 400 μg/ml geneticin (Invitrogen) and different doses of compound (1, 10, 17.5, 25 and 50 μM) until emerging resistant clones appear (2-3 weeks). The medium was renewed every 3 days. Colonies with a minimum of 50 cells were counted after staining with Fuschin 2%.

NIH3T3 = test: Cytoskeleton analysis, actin staining; format: cell-based, mouse; set-up: key to Cell architecture modification, actin staining NIH3T3, ruffles (R) / Cell architecture modification, actin staining NIH3T3, focal complexes (FC): a decrease in cellular ruffles density was noted R−; an increase in focal complexes density was noted FC+
Procedure: (§1) Since major rearrangements of cytoskeleton are observed in tumor cells and since the small GTPases are known to regulate these events, analysis of actin cytoskeleton was performed. Subconfluent cells seeded onto coverslips were treated with different concentration of compound (1, 10, 17.5, 25 and 50 μM) or vehicle for 24 h, before being fixed in 4% formaldehyde for 15 min., permeabilized in 0.2% Triton X100 for 5 minutes and incubated in PowerBlock (Biogenex) for 10 min. Actin filaments were stained with 0.5 μg/ml fluorescein isothiocyanate (FITC)-labelled phalloidin for 1 hour. Analysis was performed using an inverted fluorescent microscope.

MDA-MB-231 cells = test: Matrigel invasion assay (Boyden chamber); format: cell-based, human; conditions: for Invasion: MDA-MB-231, Boyden chamber, matrigel
Procedure: d) Migration and Matrigel Invasion Assay
Chemoinvasion assay was performed in Boyden chamber as described by Albini et al (Cancer Res, 1987) with some modifications. Polycarbonate membranes with 8μm pores were coated with matrigel (125 μg/cm^2) at room temperature for 48 h. Two hours before experiments, the matrix was […] with serum-free medium containing 0.1% BSA.
One day after seeding, 10^6 MDA-MB-231 cells were treated overnight with different concentrations of compounds (1, 10, 17.5, 25 and 50 μM). Cells were collected with Versene (Invitrogen), counted with trypan blue exclusion, rinsed twice in serum-free medium containing 0.1% BSA and resuspended in serum-free medium containing 0.1% BSA plus the appropriate concentration of compound. 10^5 treated cells were placed in the upper chamber. Medium containing 10% of FBS plus the appropriate concentration of compound was placed in the lower chamber as a chemoattractant. The Boyden chamber was incubated 6 hours at 37° C. before the cells were fixed and stained with Diff-Quick (Dade-Berhing). Cells on the upper part of the filters were removed using a cotton swab. Cells on the underside of the filters were visualised and counted under light microscope. The migration assay was performed the same way, using non-coated filters.

MDA231 = test: Cytoskeleton analysis, actin staining; format: cell-based, human
Procedure: as §1

MMP-2 = test: Gelatin zymography; format: cell-based, human; conditions: zymogram gel, MDA-MB-231 supernatant
Procedure: (§2) The activity of the metalloproteases MMP-2 and MMP-9 was assayed using gelatinolytic zymography according to Lambert (Surgery 1997). Briefly, MDA-MB-231 cells were incubated overnight in serum-free medium supplemented with ITS liquid supplement (Sigma) with different concentrations of compound (1, 10, 17.5, 25 and 50 μM). Supematant was collected and concentrated with Ultrafree 30 kDA (Millipore). Equal amount of proteins, as determined by Bradford measurement, were loaded onto a 10% w/v polyacrylamide gel containing 1% gelatin and 0.1% SDS (Novex). After electrophoresis, gels were washed in Novex Zymogram Renaturing buffer for 30 min at room temperature and incubated overnight at 37° C. in Novex Zymogram developing buffer. Gels were stained in Coomassie Brilliant Blue G-250, and the gelatinolytic activity was visualized as a clear band against the blue background of the stained gelatin.

MMP-9 = test: Gelatin zymography; format: cell-based, human; conditions: zymogram gel, MDA-MB-231 supernatant
Procedure: as §2

Row | melting point | Compound | also measured
1 | 141 to 142 °C | CCOc1ccccc1OCCCCCOc1coc(C(=O)O)cc1=O [EH4701, 5-[5-(2-Ethyloxyphenyloxy)pentyloxy]-4-oxo-4H-pyran-2-carboxylic acid] | 
2 | 82 to 83 °C | O=c1cc(COCc2ccccc2)occ1OCCCCCOc1ccc(Cl)c(Cl)c1 [EH7701, 2-(Benzyloxymethyl)-5-[5-(3,4-dichlorophenyloxy)pentyloxy]-4H-pyran-4-one] | Invasion (MDA-MB-231 cells): No significant effect; Cell architecture modification, actin staining MDA231, general observation (MDA231): cell spreading
3 | 145 to 146 °C | C/C=C/c1oc(C(=O)O)cc(=O)c1OCCCCCOc1ccccc1CCC [EH15301, (E)-2-(Propen-1-yl)-3-[5-(2-propylphenyloxy)pentyloxy]-4-oxo-4H-pyran-6-carboxvlic acid] | 
4 | 160 to 161 °C | O=C(O)c1cc(=O)c(OCCCCCOc2cccc(Cl)c2)co1 [EH15700, 5-[5-(3-Chlorophenyloxy)pentyloxy]-4-oxo-4H-pyran-2-carboxylic acid] | 
5 | 50 to 51 °C | C/C=C/c1oc(CO)cc(=O)c1OCCCCCOc1cccc(Cl)c1 [EH16201, (E)-3-[5-(3-Chlorophenyloxy)pentyloxy]-6-(hydroxymethyl)-2-(propen-1-yl)-4H-pyran-4-one] | 
6 | 86 to 87 °C | CCCc1c(OCCCCCCOc2coc(CO)cc2=O)ccc(Cl)c1Cl [EH16701, 5-[6-(3,4-Dichloro-2-propylphenyloxy)hexyloxy]-2-(hydroxymethyl)-4H-pyran-4-one] | Invasion (MDA-MB-231 cells): No significant effect; Cell architecture modification, actin staining MDA231, general observation (MDA231): cell spreading
7 | 154 to 156 °C | O=C(O)c1cc(=O)c(OCCCCCOc2ccc(Cl)cc2)co1 [EH17600, 5-[5-(4-Chlorophenyloxy)pentyloxy]-4-oxo-4H-pyran-2-carboxylic acid] | 
8 | 62 to 64 °C | CCCc1c(OCCCCCCCOc2coc(CO)cc2=O)ccc(Cl)c1Cl [EH17701, 5-[7-(3,4-Dichloro-2-propylphenyloxy)heptyloxy]-2-(hydroxymethyl)-4H-pyran-4-one] | Cell architecture modification, actin staining MDA231, general observation (MDA231): cell spreading
9 | 75 to 76 °C | CCOc1ccccc1OCCCCCOc1coc(CO)cc1=O [EH18601, 5-[5-(2-Ethyloxyphenyloxy)pentyloxy]-2-(hydroxymethyl)-4H-pyran-4-one] | Invasion (MDA-MB-231 cells): No significant effect
10 | 145 to 146 °C | CCCc1ccccc1OCCCCCOc1coc(C(=O)O)cc1=O [EH26900, 5-[5-(2-Propylphenyloxy)pentyloxy]-4-oxo-4H-pyran-2-carboxylic acid] | 
11 | 155 to 156 °C | CCCc1c(OCCCCCOc2coc(C(=O)O)cc2=O)ccc(Cl)c1Cl [EH27900, 5-[5-(3,4-Dichloro-2-propylphenyloxy)pentyloxy]-4-oxo-4H-pyran-2-carboxylic acid] | 
12 | 83 to 84 °C | CCCc1cc(Cl)c(Cl)cc1OCCCCCOc1coc(CO)cc1=O [EH30701, 5-[5-(4,5-Dichloro-2-propylphenyloxy)pentyloxy]-2-(hydroxymethyl)-4H-pyran-4-one] | Cell architecture modification, actin staining MDA231, general observation (MDA231): cell spreading

Continued, compound first:

Row | Compound | melting point | also measured
13 | O=c1cc(CO)occ1OCCCCCOc1ccc(Cl)c(Cl)c1 [EH5500, 5-[5-(3,4-Dichlorophenyloxy)pentyloxy]-2-(hydroxymethyl)-4H-pyran-4-one] | 97 to 99 °C | Colony formation [1]: −; Cell architecture modification, actin staining NIH3T3, general observation (NIH3T3): affected the general morphology; also recorded: cell destructuration
14 | O=C(O)c1cc(=O)c(OCCCCCOc2ccc(Cl)c(Cl)c2)co1 [EH6600, 5-[5-(3,4-Dichlorophenyloxy)pentyloxy]-4-oxo-4H-pyran-2-carboxylic acid] | 159 to 161 °C | 
15 | C/C=C/c1oc(CO)cc(=O)c1OCCCCCOc1ccccc1CCC [EH9301, (E)-6-(Hydroxymethyl)-2-(propen-1-yl)-3-[5-(2-propylphenyloxy)pentyloxy]-4H-pyran-4-one] | 67 to 68 °C | Invasion (MDA-MB-231 cells): No significant effect; Colony formation [1]: −
16 | C/C=C/c1oc(C(=O)O)cc(=O)c1OCCCCCOc1ccc(Cl)c(Cl)c1 [EH10501, (E)-3-[5-(3,4-Dichlorophenyloxy)pentyloxy]-2-(propen-1-yl)-4-oxo-4H-pyran-6-carboxylic acid] | 118 to 119 °C | 
17 | O=c1cc(CO)occ1OCCCCCOc1cccc(Cl)c1 [EH10600, 5-[5-(3-Chlorophenyloxy)pentyloxy]-2-(hydroxymethyl)-4H-pyran-4-one] | 87 to 88 °C | Colony formation [1]: −; Cell architecture modification, actin staining NIH3T3, general observation (NIH3T3): affected the general morphology; also recorded: cell destructuration
18 | C/C=C/c1oc(C(=O)O)cc(=O)c1OCCCCCOc1ccc(Cl)cc1 [EH17401, (E)-3-[-5-(4-Chlorophenyloxy)pentyloxy]-2-(propen-1-yl)-4-oxo-4H-pyran-6-carboxylic acid] | 136 to 137 °C | 
19 | O=c1cc(CO)occ1OCCCCOc1ccc(Cl)c(Cl)c1 [EH17700, 5-[4-(3,4-Dichlorophenyloxy)butyloxy]-2-(hydroxymethyl)-4H-pyran-4-one] | 107 to 108 °C | Colony formation [1]: −
20 | C/C=C/c1oc(C(=O)O)cc(=O)c1OCCCCCOc1cccc(Cl)c1 [EH18401, (E)-3-[5-(3-Chlorophenyloxy)pentyloxy]-2-(propen-1-yl)-4-oxo-4H-pyran-6-carboxylic acid] | 116 to 117 °C | 
21 | O=C(O)c1cc(=O)c(OCCCCOc2ccc(Cl)c(Cl)c2)co1 [EH20700, 5-[4-(3,4-Dichlorophenyloxy)butyloxy]-4-oxo-4H-pyran-2-carboxylic acid] | 182 to 183 °C | 
22 | C/C=C/c1oc(C(=O)O)cc(=O)c1OCCCCCOc1ccc(Cl)c(Cl)c1CCC [EH22501, (E)-3-[5-(3,4-Dichloro-2-propylphenyloxy)pentyloxy]-2-(propen-1-yl)-4-oxo-4H-pyran-6-carboxylic acid] | 161 to 162 °C | 
23 | C/C=C/c1oc(CO)cc(=O)c1OCCCCCOc1ccc(Cl)cc1 [EH26101, (E)-3-[5-(4-Chlorophenyloxy)pentyloxy]-6-(hydroxymethyl)-2(propen-1-yl)-4H-pyran-4-one] | 84 to 85 °C | 
24 | O=C(NCc1ccccc1)c1cc(=O)c(OCCCCCOc2ccc(Cl)cc2)co1 [EH28900, N-Benzyl-5-[5-(4-Chlorophenyloxy)pentyloxy]-4-oxo-4H-pyran-2-carboxamide] | 125 to 126 °C | 
25 | C/C=C/c1oc(CO)cc(=O)c1OCCCCCOc1ccc(Cl)c(Cl)c1 [EH30101] | 100 to 101 °C | 
26 | C/C=C/c1oc(CO)cc(=O)c1OCCCCCOc1ccc(Cl)c(Cl)c1CCC [EH31101, (E)-3-[5-(3,4-Dichloro-2-propylphenyoxy)pentyloxy]-6-(hydroxymethyl)-2-(propen-1-yl)-4H-pyran-4-one] | 75 to 76 °C | concentration at which an increase in invasive properties was noted (MDA-MB-231 cells; MDA-MB-231 cells): 10 µM; Colony formation [1]: −; Cell architecture modification, actin staining NIH3T3, focal complexes (FC) (NIH3T3): FC+; Cell architecture modification, actin staining NIH3T3, ruffles (R) (NIH3T3): R−; concentration of dose-dependant inhibition of MMP-2 (MMP-2): 0.1 µM; concentration of dose-dependant inhibition of MMP-9 (MMP-9): 0.1 µM
